{"source": "ChEMBL document CHEMBL5370579", "about": "“Structure-based lead optimization to improve potency and selectivity of a novel tetrahydroimidazo[1,2-a]pyridine-5-carboxylic acid series of heparanase-1 inhibitor” (Bioorg Med Chem, 2023)", "key": {"Heparanase": {"molecular_target": "T1, Heparanase (Homo sapiens, UniProt Q9Y251)", "T1 sequence (Q9Y251 whole entry)": "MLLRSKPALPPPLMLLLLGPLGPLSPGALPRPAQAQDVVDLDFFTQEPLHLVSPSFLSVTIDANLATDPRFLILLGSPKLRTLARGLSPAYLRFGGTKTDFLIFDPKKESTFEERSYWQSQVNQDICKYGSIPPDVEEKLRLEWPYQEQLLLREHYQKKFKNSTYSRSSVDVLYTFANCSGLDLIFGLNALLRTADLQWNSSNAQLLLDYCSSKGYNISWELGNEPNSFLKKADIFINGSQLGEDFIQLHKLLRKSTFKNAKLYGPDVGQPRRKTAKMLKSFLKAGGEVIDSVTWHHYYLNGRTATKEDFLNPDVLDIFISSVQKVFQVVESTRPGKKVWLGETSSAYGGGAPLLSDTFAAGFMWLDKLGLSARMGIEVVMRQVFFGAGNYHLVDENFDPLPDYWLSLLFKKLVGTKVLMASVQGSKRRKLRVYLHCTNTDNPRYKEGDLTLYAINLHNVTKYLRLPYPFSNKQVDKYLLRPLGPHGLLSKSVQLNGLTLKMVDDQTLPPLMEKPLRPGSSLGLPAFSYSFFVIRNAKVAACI", "test": "Inhibition of recombinant human HPSE1 using biotinylated heparan sulfate-Eu cryptate as substrate pre-incubated for 10 mins followed by substrate addition and measured after 60 mins by fluorescence based HTRF assay"}, "[1]": {"test": "Drug concentration in C57BL/6J mouse plasma at 3 mg/kg, sc measured after 4 hrs by LC-MS/MS analysis", "assay_type": "ADME, organism-based"}, "[2]": {"test": "Drug concentration in C57BL/6J mouse plasma at 30 mg/kg, sc measured after 4 hrs by LC-MS/MS analysis", "assay_type": "ADME, organism-based"}, "[3]": {"test": "Protein binding in C57BL/6J mouse serum at 1 ug/ml measured after 4 hrs by LC-MS/MS analysis", "assay_type": "ADME, cell-free", "conditions": "at 1 µg/mL, read-out: PB (converted)"}, "Mus musculus": {"test_system": "Mus musculus", "test": "In vivo inhibition of HPSE1 in C57BL/6J mouse at 3 to 100 mg/kg, sc measured after 1 to 4 hrs", "assay_type": "functional, organism-based", "conditions": "dose 3-100 mg/kg, time 1-4 hrs"}, "[4]": {"test": "Drug concentration in C57BL/6J mouse plasma at 100 mg/kg, sc measured after 1 hrs by LC-MS/MS analysis", "assay_type": "ADME, organism-based"}, "[5]": {"test": "Drug concentration in C57BL/6J mouse plasma at 30 mg/kg, sc measured after 1 hrs by LC-MS/MS analysis", "assay_type": "ADME, organism-based"}, "[6]": {"test": "Drug concentration in C57BL/6J mouse plasma at 3 mg/kg, sc measured after 1 hrs by LC-MS/MS analysis", "assay_type": "ADME, organism-based"}, "[7]": {"test": "Half life in C57BL/6J mouse at 0.5 mg/kg, iv measured after 0.083 to 24 hrs by LC-MS/MS analysis", "assay_type": "ADME, organism-based", "conditions": "in vivo, time 0.083-24 hrs"}, "[8]": {"test": "Total clearance in C57BL/6J mouse at 0.5 mg/kg, iv measured after 0.083 to 24 hrs by LC-MS/MS analysis", "assay_type": "ADME, organism-based", "conditions": "in vivo, time 0.083-24 hrs"}, "[9]": {"test": "Volume of distribution at steady state in C57BL/6J mouse at 0.5 mg/kg, iv measured after 0.083 to 24 hrs by LC-MS/MS analysis", "assay_type": "ADME, organism-based", "conditions": "in vivo, time 0.083-24 hrs, read-out: Vdss"}, "Beta-glucuronidase": {"molecular_target": "T2, Beta-glucuronidase (Homo sapiens, UniProt P08236)", "T2 sequence (P08236 whole entry)": "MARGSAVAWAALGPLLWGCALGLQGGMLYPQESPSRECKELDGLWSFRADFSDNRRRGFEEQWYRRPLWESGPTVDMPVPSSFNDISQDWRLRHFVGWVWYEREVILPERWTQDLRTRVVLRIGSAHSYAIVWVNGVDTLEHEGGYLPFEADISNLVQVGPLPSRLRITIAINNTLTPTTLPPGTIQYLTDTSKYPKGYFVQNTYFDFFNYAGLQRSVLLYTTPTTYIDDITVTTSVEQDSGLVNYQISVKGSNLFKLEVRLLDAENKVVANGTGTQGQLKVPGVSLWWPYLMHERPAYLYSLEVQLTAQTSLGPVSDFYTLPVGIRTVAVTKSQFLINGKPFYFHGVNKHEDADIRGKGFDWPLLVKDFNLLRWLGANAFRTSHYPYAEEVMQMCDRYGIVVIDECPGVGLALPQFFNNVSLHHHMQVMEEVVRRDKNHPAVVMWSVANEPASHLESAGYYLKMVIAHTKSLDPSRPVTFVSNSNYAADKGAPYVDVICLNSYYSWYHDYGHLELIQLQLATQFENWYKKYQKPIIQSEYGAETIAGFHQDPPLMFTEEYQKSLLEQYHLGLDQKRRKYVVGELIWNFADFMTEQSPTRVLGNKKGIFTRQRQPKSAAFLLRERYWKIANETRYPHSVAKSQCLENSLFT", "test": "Inhibition of recombinant human GUSbeta using 4-MUG as substrate pre-incubated for 10 mins followed by substrate addition and measured after 60 mins by fluorescence based assay"}, "[10]": {"test": "Drug excretion in C57BL/6J mouse urine at 0.5 mg/kg, iv measured after 24 hrs by LC-MS/MS analysis", "assay_type": "ADME, organism-based", "conditions": "read-out: Drug excretion"}, "[11]": {"test": "Inhibition of recombinant human GBA using 4-MUBDG as substrate pre-incubated for 10 mins followed by substrate addition and measured after 24 hrs by fluorescence based assay"}, "[12]": {"test": "Drug concentration in C57BL/6J mouse plasma at 100 mg/kg, sc measured after 4 hrs by LC-MS/MS analysis", "assay_type": "ADME, organism-based"}, "[13]": {"test": "Inhibition of bovine liver beta-glucuronidase", "assay_type": "tissue-based, Bos taurus"}}, "note": "The source made the active and inactive calls. The rule behind the calls is not given here."}
{"compound": "COc1cccc(OC)c1Oc1cccc(CCc2cn3c(n2)[C@H](O)[C@@H](O)[C@H](O)[C@H]3C(=O)O)c1OC", "values": [{"measurement": "IC50", "setting": "Heparanase", "value": 9.95, "unit": "µM"}]}
{"compound": "O=C(O)[C@@H]1[C@@H](O)[C@H](O)[C@@H](O)c2nc(CCc3ccc(Oc4ccccc4)cc3)cn21", "values": [{"measurement": "IC50", "setting": "Heparanase", "value": 0.586, "unit": "µM"}]}
{"compound": "O=C(O)[C@@H]1[C@@H](O)[C@H](O)[C@@H](O)c2nc(C3CCN(C(=O)c4ccccc4Oc4ccccc4)CC3)cn21", "values": [{"measurement": "IC50", "setting": "Heparanase", "value": 1.75, "unit": "µM"}]}
{"compound": "O=C(O)[C@@H]1[C@@H](O)[C@H](O)[C@@H](O)c2nc(CCc3ccc(CCc4ccccc4)cc3)cn21", "values": [{"measurement": "IC50", "setting": "Heparanase", "value": 2, "unit": "µM"}]}
{"compound": "COc1c(CCc2cn3c(n2)[C@H](O)[C@@H](O)[C@H](O)[C@H]3C(=O)O)cccc1Oc1ccccc1", "values": [{"measurement": "IC50", "setting": "Heparanase", "value": 1.6, "unit": "µM"}]}
{"compound": "CO[C@H]1[C@H](O)[C@@H](O)c2nc(CCc3cccc(Oc4ccccc4)c3)cn2[C@@H]1C(=O)O", "values": [{"measurement": "concentration at 4 h", "setting": "[1]", "value": 191, "unit": "ng/mL"}, {"measurement": "concentration at 4 h", "setting": "[2]", "value": 1070, "unit": "ng/mL"}, {"measurement": "fraction unbound at 4 h, 1 ug/ml", "setting": "[3]", "value": 0.045}, {"measurement": "inhibition", "setting": "Mus musculus", "value": "Active"}, {"measurement": "IC50", "setting": "Heparanase", "value": 0.442, "unit": "µM"}, {"measurement": "concentration at 1 h", "setting": "[4]", "value": 24200, "unit": "ng/mL"}, {"measurement": "concentration at 1 h", "setting": "[5]", "value": 9820, "unit": "ng/mL"}, {"measurement": "concentration at 1 h", "setting": "[6]", "value": 1240, "unit": "ng/mL"}, {"measurement": "half-life", "setting": "[7]", "value": 2.1, "unit": "h"}, {"measurement": "clearance", "setting": "[8]", "value": 5.83, "unit": "mL/min/kg"}, {"measurement": "Vd", "setting": "[9]", "value": 0.666, "unit": "L/kg"}, {"measurement": "IC50", "setting": "Beta-glucuronidase", "value": 0.839, "unit": "µM"}, {"measurement": "dose excreted at 24 h", "setting": "[10]", "value": 31.1, "unit": "%"}, {"measurement": "IC50", "setting": "[11]", "value": 0.439, "unit": "µM"}, {"measurement": "concentration at 4 h", "setting": "[12]", "value": 1880, "unit": "ng/mL"}]}
{"compound": "Cc1ccc(S(=O)(=O)Nc2ccc(CCc3cn4c(n3)[C@H](O)[C@@H](O)[C@H](O)[C@H]4C(=O)O)cc2)cc1", "values": [{"measurement": "IC50", "setting": "Heparanase", "value": 1.34, "unit": "µM"}]}
{"compound": "O=C(O)[C@@H]1[C@@H](O)[C@H](O)[C@@H](O)c2nc(CCc3ccc(S(=O)(=O)c4ccccc4)cc3)cn21", "values": [{"measurement": "IC50", "setting": "Heparanase", "value": 0.748, "unit": "µM"}]}
{"compound": "CC(C)c1ccc(Oc2cccc(CCc3cn4c(n3)[C@H](O)[C@@H](O)[C@H](O)[C@H]4C(=O)O)c2)cc1", "values": [{"measurement": "IC50", "setting": "Heparanase", "value": 1.38, "unit": "µM"}]}
{"compound": "O=C(O)[C@@H]1[C@@H](O)[C@H](O)[C@@H](O)c2nc(-c3ccc(Oc4ccccc4)cc3)cn21", "values": [{"measurement": "IC50", "setting": "Heparanase", "value": 1.1, "unit": "µM"}]}
{"compound": "O=C(O)[C@@H]1[C@@H](O)[C@H](O)[C@@H](O)c2nccn21", "values": [{"measurement": "Ki", "setting": "[13]", "value": 0.012, "unit": "µM"}]}
{"compound": "O=C(O)[C@@H]1[C@@H](O)[C@H](O)[C@@H](O)c2nc(CCc3cccc(Oc4ccccc4)c3)cn21", "values": [{"measurement": "fraction unbound at 4 h, 1 ug/ml", "setting": "[3]", "value": 0.036}, {"measurement": "IC50", "setting": "Heparanase", "value": 0.467, "unit": "µM"}, {"measurement": "half-life", "setting": "[7]", "value": 1.6, "unit": "h"}, {"measurement": "clearance", "setting": "[8]", "value": 8.18, "unit": "mL/min/kg"}, {"measurement": "Vd", "setting": "[9]", "value": 0.439, "unit": "L/kg"}, {"measurement": "IC50", "setting": "Beta-glucuronidase", "value": 0.008, "unit": "µM"}, {"measurement": "dose excreted at 24 h", "setting": "[10]", "value": 44.2, "unit": "%"}, {"measurement": "IC50", "setting": "[11]", "value": 0.053, "unit": "µM"}]}
